Test results from PMC9273884, “Responsive Fluorescent Coumarin–Cinnamic Acid Conjugates for α-Glucosidase Detection” (Frontiers in Chemistry, 2022).
“Also recorded” adds a separate entry of the source.

Key:
α-glucosidase [1] = target: T1, α-glucosidase (Saccharomyces cerevisiae, UniProt P53341); assay: Fluorescence titration of the probes with α-glucosidase; assay type: binding; settings: for increase of maximum emission intensity on addition of α-glucosidase: 3.5 μM α-glucosidase, PBS buffer
T1 construct: purchased Sigma-Aldrich
T1 sequence (P53341 whole entry): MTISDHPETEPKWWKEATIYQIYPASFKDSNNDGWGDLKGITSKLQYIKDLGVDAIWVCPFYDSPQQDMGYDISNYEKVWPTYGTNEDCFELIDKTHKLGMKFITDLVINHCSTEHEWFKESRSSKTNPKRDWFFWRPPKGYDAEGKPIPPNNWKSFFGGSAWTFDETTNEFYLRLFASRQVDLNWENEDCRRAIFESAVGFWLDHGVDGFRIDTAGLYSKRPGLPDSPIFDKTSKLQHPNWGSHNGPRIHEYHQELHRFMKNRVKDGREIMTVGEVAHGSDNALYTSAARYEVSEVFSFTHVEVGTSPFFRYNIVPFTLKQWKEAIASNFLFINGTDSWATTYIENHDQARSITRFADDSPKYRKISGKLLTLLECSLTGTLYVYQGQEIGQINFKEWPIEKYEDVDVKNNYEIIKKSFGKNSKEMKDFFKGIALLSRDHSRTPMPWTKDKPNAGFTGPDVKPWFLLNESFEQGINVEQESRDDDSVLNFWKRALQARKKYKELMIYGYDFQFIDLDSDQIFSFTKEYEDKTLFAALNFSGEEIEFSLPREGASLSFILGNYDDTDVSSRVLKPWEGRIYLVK
Procedure: (§1) All chemicals and solvents were obtained from commercial suppliers without further purification. α-Glucosidase from Saccharomyces cerevisiae (EC 3.2.1.20) was purchased from Sigma-Aldrich. p-Nitrophenyl-α-D-[…] (PNPG) was obtained from Abcam. Nuclear magnetic resonance (NMR) spectra of new compounds were recorded in DMSO-d 6 using a Bruker Advance 500 MHz spectrometer. High-resolution mass spectrometry (HRMS) was measured on a Thermo Fisher Scientific Q Exactive Orbitrap mass spectrometer. UV–Vis absorption spectra were measured using an Hitachi 3,900 absorption spectrophotometer (Tokyo, Japan). Fluorescence spectra were recorded using an Edinburgh FLS1000 fluorescence spectrophotometer (Edinburgh, UK).
α-Glucosidase protein was titrated to the solution of the testing probe (LD01 or LD02) (10 μM), and the fluorescence emission spectra were recorded from 380 to 700 nm under excitation of 365 nm. The binding constants of Ka were obtained from a double logarithm regression curve ([Wei et al., 2010]): 1g[(I−Io)/Io] = 1gKa + n 1g[G],
where I and I0 are the current and initial fluorescence intensity, respectively, K a is the binding constant, n is the number of binding sites for each α-glucosidase, and [G] is the total concentration of the α-glucosidase protein.

[2] = target: T2, α-Glucosidase from Saccharomyces cerevisiae (EC 3.2.1.20) (Saccharomyces cerevisiae, UniProt P53341); assay: α-Glucosidase inhibition efficiency test (PNPG substrate, absorbance at 405 nm); assay type: biochemical; settings: 0.1 U/mL enzyme, 1 mmol/L PNPG, 37°C, triplicate mean; read-out: IC50 against α-glucosidase
T2 construct: purchased Sigma-Aldrich
T2 sequence (P53341 whole entry): as above
Procedure: All chemicals and solvents were obtained from commercial suppliers without further purification. α-Glucosidase from Saccharomyces cerevisiae (EC 3.2.1.20) was purchased from Sigma-Aldrich. p-Nitrophenyl-α-D-galactopyranoside (PNPG) was obtained from Abcam.
Stock solutions of testing compounds were prepared in DMSO. Enzyme solution of α-glucosidase (2 U/mL) was prepared in 0.1 M PBS buffer. Nitrophenol-α-D-glucoside (PNPG) was dissolved in 0.1 M PBS buffer (pH 6.8) to obtain the substrate solution (4 mM). In total, 10 μL of α-glucosidase (final concentration 0.1 U/mL), 130 μL of PBS buffer, and 10 μL of the sample solution were added into 96-well plates in succession and incubated at 37°C for 10 min. Then 50 μL of substrate solution (PNPG final concentration 1 mmol/L) was added, followed by incubation at 37°C for another 30 min. The enzymatic activity was quantified by measuring the absorbance of the reaction mixture at 405 nm using a multimodel reader. The inhibition rate was calculated using the following equation: Inhibition rate (%) = [(A1−A0)/A0] × 100%, where A1 and A0 are the absorbance values of testing samples and blank control, respectively. The IC50 value was obtained from a plot of the inhibition rate versus the sample concentration curve. The assays were carried out in triplicate and the mean values were given.

α-glucosidase [3] = target: T1, α-glucosidase; assay: Fluorescence competitive binding assay against α-glucosidase/LD02 complex
Procedure: as §1
The binding complexes of α-glucosidase with LD02 were prepared by adding α-glucosidase (final concentration = 3.5 μM) to the solution of LD02 (10 μM) in 10 mM PBS buffer (pH = 7.4). The dissociation constant of a competitor to α-glucosidase can be determined by titrating it against binding complexes of α-glucosidase with LD02, and can be calculated according to the Cheng–Prusoff equation ([Cheng and Prusoff, 1973]).

[4] = pH-dependent emission (pKa by Henderson-Hasselbalch equation); assay type: physicochemical; settings: from emission spectra in PBS buffer pH 3.0 to 8.0, room temperature
Procedure: The emission spectra of the probes in PBS buffer (pH from 3.0 to 8.0) were determined at room temperature. The pKa value was calculated using the Henderson–Hosslbalch equation ([Finikova et al., 2003]): pH = pKa + lg ([A]/[HA]).

[5] = tested on: glucose oxidase (GOD), polyphenol oxidase (TKY), pepsin (PEP), Cys, GSH, Lys, Ca2+, Cu2+, Fe3+, Mg2+, Zn2+; assay: Binding selectivity of LD02: emission in the presence of potential competitors; settings: 10 μM LD02; enzymes 3.5 μM, small molecules and ions 1 mM; 10 mM PBS pH 7.4
Procedure: To verify the binding specificity of LD02 toward α-glucosidase, emission spectra of LD02 in the presence of α-glucosidase or various potential competitors such as other enzymes (including glucose oxidase (GOD), polyphenol oxidase (TKY), and pepsin (PEP)), and small molecules of interest (including Cys, GSH, Lys, Ca^2+, Cu^2+, Fe^3+, Mg^2+, and Zn^2+), were collected in 10 mM PBS buffer (pH = 7.4) at room temperature.
FIGURE 5 (A) Fluorescence spectra of LD02 (10 μM) in the presence of various species: α-glucosidase (α-Glu) (3.5 μM), GOD (3.5 μM), TKY (3.5 μM), PEP (3.5 μM), Cys (1 mM), GSH (1 mM), Lys (1 mM), Ca^2+ (1 mM), Cu^2+ (1 mM), Fe^3+ (1 mM), Mg^2+ (1 mM), and Zn^2+ (1 mM) in PBS buffer. (B) The plot of (I-I0)/I0 in A (λex = 365 nm, λem = 457 nm).

Question: What does the source list for `CCN(CC)c1ccc2cc(/C(C)=N/OC(=O)/C=C/c3ccc(Br)cc3)c(=O)oc2c1` [LD01]?
Answer: increase of maximum emission intensity on addition of α-glucosidase (α-glucosidase [1]; 10 μM probe): no obvious emission changes; also recorded: does not have such changes; IC50 [2]: 4.6 ± 0.5 µM; Kd (α-glucosidase [3]): 6.31 µM; pKa [4]: 4.2

Question: With `C/C(=N\OC(=O)/C=C/c1ccc(N(C)C)cc1)c1cc2ccccc2oc1=O` [LD02] as the molecule, how does the Kd (α-glucosidase [1]) read?
Answer: 158 µM

Question: What about the “increase of maximum emission intensity on addition of α-glucosidase” value (α-glucosidase [1]; 10 μM probe) of the same molecule?
Answer: 2.7 times

Question: What about the “binding ratio (n, number of binding sites) to α-glucosidase” value (α-glucosidase [1]; double logarithm regression, 10 μM probe, PBS) of the same molecule?
Answer: approximately 0.5

Question: What about the IC50 [2] of the same molecule?
Answer: 32.5 ± 0.8 µM

Question: What about the pKa [4] of the same molecule?
Answer: 4.6

Question: What about the “effect of potential competitors on emission band and intensity (selectivity toward α-glucosidase)” value [5] of the same molecule?
Answer: no obvious effect
